What all share (assay type): cell-based
What all share (conditions): Flip-In 293 cells stably expressing eGFP-bromodomain fusion and mCherry; compound titrated, 5 h incubation; FIG. 1, 2A, 2B

Test [1] relates to BRD2BD1, BRD2BD2. Kind of test: Degradation of eGFP-fused BRD2 bromodomains, eGFP/mCherry reporter flow cytometry. As to the method:
(§1) BRD2BD1, BRD2BD2, BRD3BD1, BRD3BD2, BRD4BD1, and BRD4BD2 were subcloned into mammalian pcDNA5/FRT Vector (Ampicillin and Hygromycin B resistant) modified to contain MCS-eGFP-P2A-mCherry. Stable cell lines expressing eGFP-protein fusion and mCherry reporter were generated using Flip-In 293 system. Plasmid (0.3 μg) and pOG44 (4.7 μg) DNA were preincubated in 100 μL of Opti-MEM™ I (Gibco™, Life Technologies™) media containing 0.05 mg/ml Lipofectamine® 2000 (Invitrogen™) for 20 min and added to Flip-In 293 cells containing 1.9 ml of Dulbecco's Modified Eagle's medium (DMEM) (Gibco™, Life Technologies™) per well in a 6-well plate format (Falcon, 353046). […]
(§2) Cells were seeded at 30-50% confluency in either 24, 48 or 96 well plates (3524, 3548, 3596 respectively, Costar) a day before compound treatment. The inventive compound 3 was titrated and then was incubated with cells for 5 h following trypsinization and resuspension in DMEM, transferred into 96-well plates (353910, Falcon®) and analyzed by flow cytometer (Guava® easyCyte™ HT, Millipore™). Signal from at least 3000 events per well was acquired and the eGFP and mCherry florescence monitored. Data was analyzed using FlowJo® (FlowJo®, LCC). […] The eGFP protein abundance relative to mCherry was then quantified as a ten-fold amplified ratio for each individual cell using the formula: 10× eGFP/mCherry. […]
On the technique in general: Flow cytometry measures light scatter and fluorescence of single cells or particles in a stream.

For test [2], the system named is BRD4BD1, BRD4BD2. Briefly: Degradation of eGFP-fused BRD4 bromodomains, eGFP/mCherry reporter flow cytometry. The procedure:
as §1, §2

The subject of test [3] is BRD3BD1, BRD3BD2. Kind of test: Degradation of eGFP-fused BRD3 bromodomains, eGFP/mCherry reporter flow cytometry. The procedure: as §1, §2

`COC(=O)C[C@@H]1N=C(c2ccc(Cl)cc2)c2c(sc(C(=O)NCCCCCCCCNc3cccc(C(=O)NC4CCC(=O)NC4=O)n3)c2C)-n2c(C)nnc21` (stereo partly drawn) [compound 1, methyl 2-((6S)-4-(4-chlorophenyl)-2-((8-((6-((2,6-dioxopiperidin-3-yl)carbamoyl)pyridin-2-yl)amino)octyl)carbamoyl)-3,9-dimethyl-6H-thieno[3,2-f][1,2,4]triazolo[4,3-a][1,4]diazepin-6-yl)acetate]: the “degradation of stably expressed bromodomains of BRD2 (GFP/mCherry ratio)” value in test [1] was “able to efficiently degrade”. Further, in test [2], the “degradation of stably expressed bromodomains of BRD4 (GFP/mCherry ratio)” value is listed as “able to efficiently degrade”. For the same compound, in test [3], the “degradation of stably expressed bromodomains of BRD3 (GFP/mCherry ratio)” value is given as “able to efficiently degrade”.
For the compound `COC(=O)C[C@@H]1N=C(c2ccc(Cl)cc2)c2c(sc(C(=O)NCCCCCNc3cccnc3C(=O)NC3CCC(=O)NC3=O)c2C)-n2c(C)nnc21` (stereo partly drawn) [compound 3, methyl 2-((6S)-4-(4-chlorophenyl)-2-((5-((2-((2,6-dioxopiperidin-3-yl)carbamoyl)pyridin-3-yl)amino)pentyl)carbamoyl)-3,9-dimethyl-6H-thieno[3,2-f][1,2,4]triazolo[4,3-a][1,4]diazepin-6-yl)acetate], the “degradation of stably expressed bromodomains of BRD4 (GFP/mCherry ratio)” value in test [2] is “only the first bromodomain of BRD4 is degraded”.
